melting point	SMILES
112 to 113 °C	FC(F)(F)c1cccc(CSc2nnc(-c3ccc4ncsc4c3)o2)c1
166 to 168 °C	O=C(Cn1c(-c2ccc(F)cc2)nc2cccnc21)OCCO
177 to 179 °C	CCOC(=O)Cc1csc(NC(=S)Nc2cc(Cl)ccc2C)n1
200 to 202 °C	COc1cn(-c2ccc(-c3c(C)noc3C)cc2F)nc(-c2ccnn2-c2ccccc2)c1=O
135 to 137 °C	CCCC(=O)c1cnc2c(C)cccc2c1Nc1ccccc1OC
299 to 300 °C	Cc1n[nH]c2c1nc(-c1ccccc1)c1cc(Br)ccc12
> 270 °C	O=C1OCC2=C1C(c1ccccc1Cl)c1c[nH]nc1N2 (stereo not given)
100 to 103 °C	Oc1ccccc1-c1c(Cl)cccc1Cl
185 °C	O=C(O)CCCc1cc2nc(Cl)ccc2n1S(=O)(=O)c1ccc(C(F)(F)F)cc1
103 to 106 °C	CSCC(C)Nc1nccc(-c2ccnc(Cl)c2)n1 (stereo not given)
243 to 245 °C	O=C(Cl)C1CCN(c2cc(-c3ccccc3)nc3ccc(F)cc23)CC1
248 °C	O=C(Nc1cccc(S(=O)(=O)NC2CC2)c1)c1cnn2c(C(F)(F)F)cc(-c3ccc(Cl)c(Cl)c3)nc12
245 to 247 °C	NC(=O)c1cc(-c2ccnc(Nc3cccc(Cl)c3)n2)ccn1
> 350 °C	CC(=O)N1CCc2[nH]cc3c(=O)n(-c4ccc(Cl)cc4)nc-3c2C1
218 to 225 °C	Cc1ccnc(C(=O)c2[nH]c3ccc(C(F)(F)F)cc3c2CC(=O)O)c1
251 to 252 °C	COc1ccccc1Cc1cccc(-c2ncc3c(n2)CC(C)(C)CC3)n1
195 to 196 °C	CNc1nc(C(C)c2ccc(-c3ccc(F)cc3)c(F)c2)c(C(=O)O)s1 (stereo not given)

melting point	SMILES
242 to 244 °C	Cc1cc(N2CCc3ccccc32)nc(N)n1
78 to 79 °C	O=c1cc(N2CCOc3ccccc32)oc2c1ccc1ccccc12
179 to 180 °C	c1ccc(-c2cnc3c(c2)ncn3-c2cccc(-c3cccnc3)c2)cc1
198 to 203 °C	O=C1N(N2CCOCC2)c2ccccc2C1(Cc1ccnc(F)c1)Cc1ccnc(F)c1
183 to 184 °C	CCOC(=O)c1cc(O)n(-c2ccccc2)n1
262 to 265 °C	Cc1nc(NC(=O)c2ccc(S(C)(=O)=O)cc2)sc1C(=O)NCc1ccccc1
92 to 93 °C	CN(C)Cc1cccc(OCCCNc2nc(N=Cc3cccnc3)nn2C)c1
173 °C	COc1ccc(C2(c3ccc(OC)cc3)CC(C)N=C2NC(=O)c2cc(C)[nH]n2)cc1 (stereo not given)
215 to 220 °C	COc1ccccc1NC(=O)Nc1nc(Nc2ccc(-c3ccccc3)cc2)nc(N(CCC(=O)O)Cc2ccc(Cl)c(Cl)c2)n1
103 to 105 °C	COc1cccc(OCC(O)c2cccc(OCc3ccc4ccccc4n3)c2)c1 (stereo not given)
183 to 184 °C	COc1ccc(C(=O)Nc2ccccc2/C=C/c2ccnc(C)c2)cc1
98 to 100 °C	CN(CCN1CCC(=C(c2ccccc2)c2ccccc2)CC1)c1ncccn1
291 to 296 °C	CNc1ncc2c(-c3cccc(Cl)c3)cc(-c3ccc(C(=O)O)cc3)c(O)c2n1
175 to 176 °C	CNc1cc(Oc2ccc3c(c2)CCCN3C(=O)Nc2ccc(C(C)(C)C)cc2)ncn1
205 to 206 °C	Clc1ccc(Nc2ncnc(-c3ccnc(N4CCCCC4)c3)n2)cc1
> 250 °C	COc1cc2ncc(C#N)c(Nc3cc(Cl)ccc3O)c2cc1OC

Second part, the compound before the results:

SMILES	melting point
CSc1sc(C(N)=O)c2c1-c1nc(C)sc1CC2	269 to 270 °C
COc1cccc2c(N3CCN(C[C@H]4COc5ccc6nc(C)ccc6c5O4)CC3)coc12	56 °C
Cc1ccccc1Oc1nnc(Cl)c(C)c1O	209 to 213 °C
COCC(=O)N(CC(C)=O)c1c(C)cccc1C	56 to 57 °C
O=[N+]([O-])c1ccc(Cl)c(F)c1O	73 °C
NC(=O)c1c(O)cccc1OCCBr	120 to 121 °C
O=c1oc2c(c(O)c1Sc1ccc(Cl)cc1)c(=O)n(Cc1ccccc1)c1ccccc21	273 to 275 °C
COC(=O)NC(Cc1ccccc1)C1CC(Cc2ccccc2)=NO1 (stereo not given)	87 to 88.5 °C
CC(C)(C)OC(=O)N1CCCN(c2ccc(N)cc2C#N)CC1	38 °C
CSC(=S)N1Cc2[nH]c3ccccc3c2CC1CO (stereo not given)	114 to 116 °C
N=C(N)NNC1=NS(=O)(=O)c2ccccc21	252 to 253 °C
O=C(c1ccccc1)c1ccc(N2CCC(N3C(=O)OCc4ccccc43)CC2)c([N+](=O)[O-])c1	272 to 273 °C
CC(C)C(NC(=O)N(C)Cc1nc2ccccc2[nH]1)C(=O)NN(C(=O)OCc1cccnc1)C(Cc1ccccc1)CC(O)CCc1ccccc1 (stereo not given)	110 to 114 °C
CN1C(=O)CC[C@]2(C)c3ccc(-c4ccc([N+](=O)[O-])s4)cc3CC[C@@H]12	147 to 149 °C
CN1C(=O)c2cncnc2Nc2ccccc21	236 to 237 °C
CCCCn1ccc2cc(-c3ccc(C(F)(F)F)cc3)ccc21	52 to 53 °C
COCOC1=C(C(=O)OC)CC(C#N)(c2ccc(OC)c(OCC3CC3)c2)CC1 (stereo not given)	98 to 99 °C
CN(C)C=CC(=O)CC(C)(C)C	72 to 74 °C
O=C(CBr)c1ccc(OC2CCCCO2)cc1 (racemic)	102 to 104 °C
COc1c(C(=O)O)sc(C(F)(F)F)c1SCc1ccccc1	146 to 147 °C
CCCCCCCCCCCCCCOCC(COCCCCCCCCCCCCCC)(CC(=O)O)CC(=O)O	84 to 86 °C
O=C(CC12CC3CC(CC(C3)C1)C2)Nc1cccc2[nH]ccc12	211 to 213 °C
CC(C)CC(=O)c1cn(C)cc(-c2cccc(C(F)(F)F)c2)c1=O	110 to 112 °C

SMILES	melting point
CC12CCC3c4ccc(C(=O)O)cc4CCC3C1CCC2C(=O)c1ccc(-c2ccccc2)cc1 (stereo not given)	268 to 270 °C
COC(=O)Cn1c(=O)n(C)c(=O)n(-c2cc(Oc3c(Cl)ccc(C)c3Cl)ccc2[N+](=O)[O-])c1=O	200 to 202 °C
CCOC(=O)C(=CNc1cnnn1C)C(=O)c1cc(F)c(Cl)nc1Cl	187 to 189 °C
COC(=O)c1c(C(=O)O)c(O)c2cc(OC)c(OC)c(OC)c2c1-c1cc(OC)c(OC)c(OC)c1	167 to 171 °C
CCCCOCCC(C)CCCC(C)(C)c1cc(O)c(C(C)(C)CCCC(C)CCOCCCC)cc1O (stereo not given)	86 to 89 °C
CC(CN(C)C)CN1c2ccccc2OCOc2ccc(Cl)cc21 (single isomer, unassigned; (-))	92 to 95 °C
COc1ccc(OCc2nc(-c3ccc(F)cc3)c(-c3ccc(S(C)(=O)=O)cc3)s2)cc1	160 to 164 °C
CN(C(=O)C1(CCCCCCCCCCCCC2(C(=O)O)CC2)CC1)S(C)(=O)=O	62.9 to 63.7 °C
CCCCc1nc2cscc2[nH]1	118 °C
CC(=Cc1ccc(N)cc1)c1ccc2c(c1)C(C)(C)CCC2(C)C	106 to 108 °C
Cc1c(N2CCNC(C)C2)c(F)cc2c(=O)c(C(=O)O)cn(C3CC3)c12 (stereo not given)	206 to 208 °C
CCNC(=O)ON(C(=O)CC)C(=O)NCC	104 to 106 °C
COCN1C(=O)CN=C(c2ccccc2)c2cc(NO)ccc21	168 to 170 °C
O=[N+]([O-])c1ccc2c(c1)CNCCS2	104 to 105 °C
Nc1cc2[nH]c(=O)c(C(=O)O)nc2cc1F	> 300 °C
N#C/C(=C\c1cc(O)c(O)c(I)c1)C(=O)NCc1ccccc1	220 °C
CC(C)NCC#CC1(O)c2ccccc2-c2ccccc21	135 to 137 °C
Oc1ccc(-c2nc3cc(O)cc(Br)c3o2)c(C(F)(F)F)c1	183 to 185 °C
Cc1ccc(CNc2cccc3c2C(=O)N(C2CCC(=O)NC2=O)C3=O)o1 (stereo not given)	305 to 307 °C
CC(C#N)=CCN1C(=O)c2ccccc2S1(=O)=O	107 to 108 °C
O=C(N[C@H](CC1CCCCC1)CN1CCN(c2ncccn2)CC1)C1CCCCC1	121 to 123 °C
Cc1nc(COC(=O)c2cccnc2C#N)cs1	93 °C
Cc1ccc(C2COc3c(C)c(C)c(Br)c(C)c32)cc1 (stereo not given)	108 to 109 °C

SMILES	melting point
CN1CCC(C2Cc3ccccc3C(=O)N2)CC1 (stereo not given)	139 to 141 °C
COc1ccc2c(=O)c(-c3ccc(C)cc3)c(SCc3ccncc3)oc2c1	157 to 160 °C
CCOC(=O)C(C)O/N=C(\C(=O)Sc1nc2ccccc2s1)c1csc(N)n1 (stereo not given)	113 °C
CC(=O)SCC(C(=O)N[C@@H](CC(C)C)C(=O)O)C(F)(F)F (stereo not given in full)	150 to 152 °C
COC(=O)CC(NCCCN(C)C)C(=O)O (stereo not given)	171 to 172 °C
COc1cc(F)ccc1-c1c(/C=C/C(O)CC(=O)O)c2ccccc2c(=O)n1C(C)C (stereo not given)	207 to 209 °C
O=C(Nc1nc(C(F)(F)C(F)(F)F)c(CF)s1)c1cc(C(F)(F)F)cc(C(F)(F)F)c1	133 to 134 °C
COc1cc(OC)c(OC)cc1CN[C@@H](C(=O)O)[C@H](O)[C@H](Cc1ccccc1)NC(=O)OC(C)(C)C	206 °C
COCC(C)Oc1cc(Oc2ccc(S(C)(=O)=O)nc2)cc2cc(C3=NCC(CC(N)=O)S3)[nH]c12 (stereo not given)	131 to 132 °C
[O-][N+]1=C(c2ccccc2F)c2cc(Cl)ccc2N=C(C2CCCN2C=NO)C1 (stereo not given)	168 to 172 °C
OC1CCCc2nc3ccccc3c(NCc3ccc(C(F)(F)F)cc3)c21 (stereo not given)	174 to 176 °C
CCNC(=N)NC(=O)Cc1ccccc1OC	127 to 128 °C
CCOC(=O)C=Cc1ccc(OC2CCCCO2)cc1 (stereo not given)	52 to 53 °C
CCn1cc(CN(C(=O)C2CCCc3ccc(O)cc32)c2ccc(C(C)C)cc2)cn1 (stereo not given)	169 to 170 °C
Cc1cnc2sc(S(=O)(=O)c3ccccc3)nn2c1=O	198 to 200 °C
COC(=O)C1(C(F)F)c2ccccc2Oc2ccccc21	101 °C
CCOc1ccc([N+](=O)[O-])c(NN2CCN(C)CC2)c1	145 °C
O=C(c1ccccc1)N1CCC(O)CC1	91.5 to 92 °C
CCOC(=O)C(NS(=O)(=O)c1ccc(C)cc1)C1CCOC1 (stereo not given)	104 to 105 °C
CCCCOC(=O)n1ccc(NC(=O)Nc2cccc3c2C2CCCCN2C3=O)n1 (stereo not given)	136 °C
CC1(C)Oc2cnccc2C2OC21 (stereo not given)	110 to 112 °C
